Test results reported in patent publication US7202261B2, “Calcilytic compounds” (NPS Pharmaceuticals, Inc., priority 1996, dated 2007).
Structures can show the parent of a compound that is named as a salt.

Each molecule was assayed against T1, human calcium receptor (Homo sapiens, UniProt P41180) (assay: Calcium Receptor Inhibitor Assay). Details: not given.
T1 construct: expressed in transfected cells
T1 sequence (P41180 20-1078): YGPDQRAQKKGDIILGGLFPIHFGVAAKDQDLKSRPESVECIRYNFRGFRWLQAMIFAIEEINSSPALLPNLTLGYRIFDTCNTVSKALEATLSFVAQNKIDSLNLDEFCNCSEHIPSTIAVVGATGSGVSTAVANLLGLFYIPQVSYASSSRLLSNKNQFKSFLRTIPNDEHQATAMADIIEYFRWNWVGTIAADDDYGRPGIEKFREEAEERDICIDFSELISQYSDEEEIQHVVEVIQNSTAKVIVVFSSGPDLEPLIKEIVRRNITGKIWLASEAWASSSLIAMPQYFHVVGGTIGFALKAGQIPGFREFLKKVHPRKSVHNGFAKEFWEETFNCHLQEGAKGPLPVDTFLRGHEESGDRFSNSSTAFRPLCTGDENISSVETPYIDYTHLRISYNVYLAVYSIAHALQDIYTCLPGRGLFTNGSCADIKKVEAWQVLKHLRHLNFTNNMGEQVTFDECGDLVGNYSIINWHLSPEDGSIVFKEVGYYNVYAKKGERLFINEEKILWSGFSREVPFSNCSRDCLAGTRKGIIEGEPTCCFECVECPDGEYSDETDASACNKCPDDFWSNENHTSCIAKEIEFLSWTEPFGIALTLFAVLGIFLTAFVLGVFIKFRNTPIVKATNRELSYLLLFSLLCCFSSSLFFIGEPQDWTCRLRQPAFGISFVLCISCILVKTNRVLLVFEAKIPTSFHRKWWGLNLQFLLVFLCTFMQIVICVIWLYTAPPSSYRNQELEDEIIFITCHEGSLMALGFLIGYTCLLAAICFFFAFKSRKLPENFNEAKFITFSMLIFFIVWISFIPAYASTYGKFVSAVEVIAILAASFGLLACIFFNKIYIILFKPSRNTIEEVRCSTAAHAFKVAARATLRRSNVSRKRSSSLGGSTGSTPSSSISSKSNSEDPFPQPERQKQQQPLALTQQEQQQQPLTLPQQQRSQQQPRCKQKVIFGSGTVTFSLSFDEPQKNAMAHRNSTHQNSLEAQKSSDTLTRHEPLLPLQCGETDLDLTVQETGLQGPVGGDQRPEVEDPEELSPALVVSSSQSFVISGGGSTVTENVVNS
Type: cell-based
Method: This example illustrates the use of the Calcium Receptor Inhibitor Assay. […] Res. 10 Suppl. […] Intracellular Ca^2+ was measured using fluo-3, a fluorescent calcium indicator.
The procedure was as follows:
1. Cells were maintained in T-150 flasks in selection media (DMEM supplemented with 10% fetal bovine serum and 200 μg/mL hygromycin B), under 5% CO2:95% air at 37° C. and were grown up to 90% confluency.
2. The medium was decanted and the cell monolayer was washed twice with phosphate-buffered saline (PBS) kept at 37° C. After the second wash, 6 mL of 0.02% EDTA in PBS was added and incubated for 4 minutes at 37° C. Following the incubation, cells were dispersed by gentle agitation.
3. Cells from 2 or 3 flasks were pooled and pelleted (100×g). The cellular pellet was resuspended in […] of SPF-PCB+ and pelleted again by centrifugation. This washing was done twice.
SPF-PCB was made up and stored at 4° C. On the day of use, SPF-PCB was supplemented with 1 mg/mL of D-glucose and 1 mM CaCl2 and then split into two fractions. To one fraction, bovine serum albumin (BSA; fraction V, ICN) was added at 5 mg/mL (SPF-PCB+). This buffer was used for washing, loading and maintaining the cells. The BSA-free fraction was used for diluting the cells in the cuvette for measurements of fluorescence.
5. Following the incubation period, the cells were pelleted by centrifugation. The resulting pellet was washed with SPF-PCB+. After this washing, cells were resuspended in SPF-PCB+ at a density of 1–2×10^6 cells/mL.
6. For recording fluorescent signals, 300 μL of cell suspension were diluted in 1.2 mL of SPF buffer containing 1 mM CaCl2 and 1 mg/mL of D-glucose. Measurements of fluorescence were performed at 37° C. with constant stirring using a spectrofluorimeter. […] To calibrate fluorescence signals, digitonin (5 mg/mL in ethanol) was added to obtain Fmax, and the apparent Fmin was determined by adding Tris-EGTA (2.5 M Tris-Base, 0.3 M EGTA).
7. To determine the potential calcilytic activity of test compounds, cells were incubated with test compound (or vehicle as a control) for 90 seconds before increasing the concentration of extracellular Ca^2+ from 1 to 2 mM. Calcilytic compounds were detected by their ability to block, in a concentration-dependent manner, increases in the concentration of intracellular Ca^2+ elicited by extracellular Ca^2+.
Work on COc1ccc(CC(C)(C)NCC(O)CCc2cccc(Cl)c2Cl)cc1 (racemic) [Compound 163] yielded an IC50 of under 1 µM. Molecule COc1ccc(CC(C)(C)NCC(O)CCCC[N+](=O)[O-])cc1 (racemic) [Compound 164, (R/S)-1-nitro-5-hydroxy-6-[1,1-dimethyl-2-(4-methoxyphenyl)]hexane] has an IC50 of under 50 µM. For COc1ccc(CC(C)(C)NCCCc2ccccc2)cc1 [Compound 22, N-(3-phenylpropyl)-1,1-dimethyl-2(4-methoxyphenyl)ethylamine], the IC50 was over 50 µM. For COc1ccc(CC(C)(C)NCCCCc2ccccc2)cc1 [Compound 24, N-(4-phenylbutyl)-1,1-dimethyl-2-(4-methoxyphenyl)ethylamine], the IC50 was over 50 µM. COc1ccc(CC(C)(C)NCC(O)COC(C)(C)C)cc1 (stereo not shown) [Compound 25, N-(2-Hydroxy-3-t-butoxypropyl)-1,1-dimethyl-2-(4-methoxyphenyl)ethylamine] showed an IC50 of under 50 µM. CCCCOCC(O)CNC(C)(C)Cc1ccc(OC)cc1 (stereo not shown) [Compound 26, N-(2-Hydroxy-3-butoxypropyl)-1,1-dimethyl-2-(4-methoxyphenyl)ethylamine] gave an IC50 of under 10 µM. With COc1ccc(CC(C)(C)NCC(O)COC(C)C)cc1 (stereo not shown) [Compound 27, N-(2-Hydroxy-3-isoproproxypropyl)-1,1-dimethyl-2-(4-methoxyphenyl)ethylamine] the IC50 was under 10 µM. Molecule CCCCC(CC)COCC(O)CNC(C)(C)Cc1ccc(OC)cc1 (stereo not shown) [Compound 28, N-[2-Hydroxy-3-(2-ethyl)hexanoxypropyl]-1,1-dimethyl-2-(4-methoxyphenyl)ethylamine] has an IC50 of under 1 µM. C=CCOCC(O)CNC(C)(C)Cc1ccc(OC)cc1 (stereo not shown) [Compound 29, N-(2-Hydroxy-3-allyloxypropyl)-1,1-dimethyl-2-(4-methoxyphenyl)ethylamine] was tested, and the IC50 was under 50 µM. For COc1ccc(CC(C)(C)NCc2ccccc2)cc1 [Compound 34, N-(Benzyl)-1,1-dimethyl-2-(4-methoxyphenyl)ethylamine], the IC50 was over 50 µM. For COc1ccc(CC(C)(C)NCC(O)Cc2ccccc2)cc1 (stereo not shown) [Compound 37, N-(2-Hydroxy-3-phenylpropyl)-1,1-dimethyl-2-(4-methoxyphenyl)ethylamine Hydrochloride], the IC50 was under 10 µM.

Same assay, conditions: HEK 293 4.0–7 cells stably expressing the human calcium receptor; fluo-3; read-out: IC50 for blocking increases of intracellular Ca2+ elicited by extracellular Ca2+
Molecule COc1ccc(CC(C)(C)NC[C@@H](O)COc2ccc(C(C)(C)C)cc2)cc1 (racemic) [Compound 20, (R) and (S)—N-[2-Hydroxy-3-(4-t-butylphenoxy)propyl]-1,1-dimethyl-2-(4-methoxyphenyl)ethylamine Hydrochloride] has an IC50 of under 1 µM. In the case of COc1ccc(CC(C)(C)NCC(O)CCc2cccc3ccccc23)cc1 (racemic) [Compound 162, (R/S)-1-[[2,2-dimethyl-(4′methoxy)phenethyl]]amino-2-hydroxy-4(1′-naphthyl)-butane], the IC50 is reported as under 10 µM. In the case of COc1ccc(CC(C)(C)NC[C@@H](O)COc2cccc3ccccc23)cc1 (single isomer, unassigned) [Compound 105, Hydrochloride], the IC50 is reported as under 1 µM. In the case of COc1ccc(CC(C)(C)NC[C@H](O)COc2cccc3ccccc23)cc1 (single isomer, unassigned) [Compound 106, Hydrochloride], the IC50 is reported as under 1 µM. COc1ccc(CC(C)(C)NCC(O)COc2cccc3[nH]c(O)nc23)cc1 (stereo not shown) [Compound 1] showed an IC50 of under 50 µM. Work on CC(C)(Cc1ccc(F)cc1)NCC(O)COc1cccc2ccccc12 (stereo not shown) [Compound 2, N-[2-Hydroxy-3-(1-naphthoxy)propyl]-1,1-dimethyl-2-(4-fluorophenyl)ethylamine Hydrochloride] yielded an IC50 of under 10 µM. In the case of COc1ccc(CC(C)(C)NCC(O)COc2ccccc2)cc1 (stereo not shown) [Compound 3, N-(2-Hydroxy-3-phenoxypropyl)-1,1-dimethyl-2-(4-methoxyphenyl)ethylamine Hydrochloride], the IC50 is reported as under 10 µM. In the case of COc1ccc(CC(C)(C)NCC(O)COc2ccc(Cl)cc2)cc1 (stereo not shown) [Compound 5, N-[2-Hydroxy-3-(4-chlorophenoxy)propyl]-1,1-dimethyl-2-(4-methoxyphenylethylamine Hydrochloride], the IC50 is reported as under 1 µM. With COc1ccc(CC(C)(C)NCC(O)COc2ccc(C(C)(C)C)cc2)cc1 (stereo not shown) [Compound 6, N-[2-Hydroxy-3-(4-t-butylphenoxy)propyl]-1,1-dimethyl-2-(4-methoxyphenyl)ethylamine Hydrochloride] the IC50 was under 1 µM. Molecule COc1ccc(CC(C)(C)NCC(O)COc2ccc(OC)cc2)cc1 (stereo not shown) [Compound 7, N-[2-Hydroxy-3-(4-methoxyphenoxy)propyl]-1,1-dimethyl-2-(4-methoxyphenyl)ethylamine Hydrochloride] has an IC50 of under 10 µM. Molecule COc1ccc(CC(C)(C)NCC(O)COc2ccccc2C)cc1 (stereo not shown) [Compound 8, N-[2-Hydroxy-3-(2-methylphenoxy)propyl]-1,1-dimethyl-2-(4-methoxyphenyl)ethylamine Hydrochloride] has an IC50 of under 10 µM. COc1ccc(CC(C)(C)NCC(O)COc2cccc3[nH]c(C(N)=O)cc23)cc1 (stereo not shown) [Compound 9, N-[2-Hydroxy-3-(4-(2-carboxamido)indoloxy)propyl]-1,1-dimethyl-2-(4-methoxyphenyl)ethylamine Hydrochloride] was tested, and the IC50 was under 50 µM. With COc1ccc(CC(C)(C)NCCCOc2ccccc2)cc1 [Compound 17, N-(3-Phenoxypropyl)-1,1-dimethyl-2-(4-methoxyphenyl)ethylamine Hydrochloride] the IC50 was under 50 µM. In the case of COc1ccc(CC(C)(C)NCC(O)COc2cccc3ccccc23)cc1 (stereo not shown) [Compound 19, N-[2-Hydroxy-3-(1-naphthoxy)propyl]-1,1-dimethyl-2-(4-methoxyphenyl)ethylamine Hydrochloride], the IC50 is reported as under 1 µM. With COc1ccc(CC(C)(C)NCC(O)COc2ccc3ccccc3c2)cc1 (stereo not shown) [Compound 35, N-[2-Hydroxy-3-(2-naphthoxy)propyl]-1,1-dimethyl-2-(4-methoxyphenyl)ethylamine Hydrochloride] the IC50 was under 10 µM. Molecule COc1ccc(CC(C)(C)NCCCCOc2ccccc2)cc1 [Compound 36, N-(4-phenoxybutyl)-1,1-dimethyl-2-(4-methoxyphenyl)ethylamine] has an IC50 of over 50 µM. Molecule COc1ccc(CC(C)(C)NCC(O)COc2cccc(F)c2)cc1 (stereo not shown) [Compound 39, N-[2-Hydroxy-3-(3-fluorophenoxy)propyl]-1,1-dimethyl-2-(4-methoxyphenyl)ethylamine Hydrochloride] has an IC50 of under 10 µM. Work on COc1ccc(CC(C)(C)NCC(O)COc2ccccc2Cl)cc1 (stereo not shown) [Compound 40, N-[2-Hydroxy-3-(2-chlorophenoxy)propyl]-1,1-dimethyl-2-(4-methoxyphenyl)ethylamine Hydrochloride] yielded an IC50 of under 1 µM. COc1ccc(CC(C)(C)NCC(O)COc2ccccc2F)cc1 (stereo not shown) [Compound 41, N-[2-Hydroxy-3-(2-fluorophenoxy)propyl]-1.1-dimethyl-2-(4-methoxyphenyl)ethylamine Hydrochloride] gave an IC50 of under 10 µM. For COc1ccc(CC(C)(C)NCCCOc2cccc3ccccc23)cc1 [Compound 42, N-(3-(1-napthoxy)propyl)-1,1-dimethyl-2-(4-methoxyphenyl)], the IC50 was under 50 µM.
